Residues, ends and D or L forms follow the SMILES beside them. No end group written: not given here.
Tests used:
Type in all cases: cell-based
[1] = target: T1, GPR1 (Homo sapiens, UniProt P46091); test: β-arrestin recruitment (PathHunter); settings: receptor GPR1, mean, SEM and n (2-3); for EC50: read-out: b-arrestin recruitment assays (PathHunter) pEC50 (converted)
T1 sequence (P46091 1-355): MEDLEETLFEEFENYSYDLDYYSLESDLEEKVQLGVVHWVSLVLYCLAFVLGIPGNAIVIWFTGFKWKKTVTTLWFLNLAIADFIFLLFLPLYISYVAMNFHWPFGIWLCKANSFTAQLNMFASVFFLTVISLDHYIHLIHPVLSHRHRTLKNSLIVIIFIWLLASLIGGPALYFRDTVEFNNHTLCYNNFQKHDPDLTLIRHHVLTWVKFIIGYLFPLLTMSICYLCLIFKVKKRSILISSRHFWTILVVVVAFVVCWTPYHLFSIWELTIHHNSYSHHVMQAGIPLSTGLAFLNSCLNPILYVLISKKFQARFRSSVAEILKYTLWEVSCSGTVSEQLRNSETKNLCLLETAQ
Procedure: PathHunter eXpress Assays (DiscoverX) were performed in 384-well format according to the manufacturer’s recommendations. GPR1 cells were incubated with peptides for 90 min and luminescence measured using an EnSpire 2300 Multimode plate reader (PerkinElmer).

[2] = target: T1, GPR1; test: β-arrestin recruitment (Tango), validation; parameters: host or cells: HTLA cells (HEK293-derived); settings: receptor GPR1, mean, SEM and n (2-3); for EC50: read-out: b-arrestin recruitment assays (Tango) pEC50 (converted)
[3] = target: T2, BB3 (Homo sapiens, UniProt P32247); test: IP1 accumulation (Gq/11), HTRF; settings: receptor BB3; mean, SEM and n (2-4); read-out: IP1 accumulation assays pEC50 (converted)
T2 construct: hIL-2Ra signal peptide (N); expressed in transfected cells
T2 sequence (P32247 2-399 limits assumed): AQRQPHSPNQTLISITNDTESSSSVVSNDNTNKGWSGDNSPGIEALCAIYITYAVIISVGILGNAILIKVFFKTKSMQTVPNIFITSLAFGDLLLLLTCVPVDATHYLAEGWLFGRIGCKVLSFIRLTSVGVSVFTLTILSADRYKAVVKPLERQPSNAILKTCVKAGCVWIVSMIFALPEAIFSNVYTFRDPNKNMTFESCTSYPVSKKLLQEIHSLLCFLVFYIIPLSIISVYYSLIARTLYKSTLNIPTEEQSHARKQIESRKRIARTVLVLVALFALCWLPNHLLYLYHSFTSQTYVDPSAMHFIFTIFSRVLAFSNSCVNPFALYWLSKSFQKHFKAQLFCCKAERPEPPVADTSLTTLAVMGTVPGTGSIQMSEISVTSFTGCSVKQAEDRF

Compound | EC50 [1] | EC50 [2] | b-arrestin recruitment assays (PathHunter) Emax (fold change) [1] | b-arrestin recruitment assays (Tango) Emax (fold change) [2] | EC50 [3]
CC(C)C[C@H](NC(=O)[C@H](CCCNC(=N)N)NC(=O)[C@H](CC(=O)O)NC(=O)[C@H](CC(C)C)NC(=O)[C@@H]1CCCN1C(=O)[C@H](CO)NC(=O)CNC(=O)[C@H](Cc1ccccc1)NC(=O)CNC(=O)[C@H](CO)NC(=O)[C@H](Cc1ccccc1)NC(=O)[C@H](CO)NC(=O)[C@H](CCCNC(=N)N)NC(=O)[C@@H](N)CCCCN)C(=O)N[C@@H](CO)C(=O)N[C@@H](C)C(=O)NCC(=O)N[C@@H](CO)C(=O)N[C@H](C(=O)N[C@@H](CC(=O)O)C(=O)N[C@@H](Cc1c[nH]cn1)C(=O)N[C@@H](CCCCN)C(=O)NCC(=O)N[C@@H](CCCCN)C(=O)N[C@@H](CCC(N)=O)C(=O)N[C@@H](CCCNC(=N)N)C(=O)N[C@@H](CCCCN)C(=O)N[C@H](C(=O)N[C@H](C(=O)N[C@@H](CC(=O)O)C(=O)N[C@@H](Cc1c[nH]cn1)C(=O)N1CCC[C@H]1C(=O)O)C(C)C)C(C)C)C(C)C [Peptide 141.3] (H-KRSFSGFGSPLDRLSAGSVDHKGKQRKVVDHP-OH) | 550 nM | 2630 nM | – | – | –
CC(C)C[C@H](NC(=O)[C@H](CCCNC(=N)N)NC(=O)[C@H](CC(=O)O)NC(=O)[C@H](CC(C)C)NC(=O)[C@@H]1CCCN1C(=O)[C@H](CO)NC(=O)CNC(=O)[C@H](Cc1ccccc1)NC(=O)CNC(=O)[C@H](CO)NC(=O)[C@H](Cc1ccccc1)NC(=O)[C@@H](N)CO)C(=O)N[C@@H](CO)C(=O)N[C@@H](C)C(=O)NCC(=O)N[C@@H](CO)C(=O)N[C@H](C(=O)N[C@@H](CC(=O)O)C(=O)N[C@@H](Cc1c[nH]cn1)C(=O)N[C@@H](CCCCN)C(=O)NCC(=O)N[C@@H](CCCCN)C(=O)N[C@@H](CCC(N)=O)C(=O)O)C(C)C [Peptide 141.5] (H-SFSGFGSPLDRLSAGSVDHKGKQ-OH) | 20900 nM | 16200 nM | 6.2 fold change | 13.6 fold change | –
CC(C)C[C@H](NC(=O)[C@H](CCCNC(=N)N)NC(=O)[C@H](CC(=O)O)NC(=O)[C@H](CC(C)C)NC(=O)[C@@H]1CCCN1C(=O)[C@H](CO)NC(=O)CNC(=O)[C@H](Cc1ccccc1)NC(=O)CNC(=O)[C@H](CO)NC(=O)[C@H](Cc1ccccc1)NC(=O)[C@@H](N)CO)C(=O)N[C@@H](CO)C(=O)N[C@@H](C)C(=O)NCC(=O)N[C@@H](CO)C(=O)N[C@H](C(=O)N[C@@H](CC(=O)O)C(=O)N[C@@H](Cc1c[nH]cn1)C(=O)N[C@@H](CCCCN)C(=O)NCC(=O)N[C@@H](CCCCN)C(=O)N[C@@H](CCC(N)=O)C(=O)N[C@@H](CCCNC(=N)N)C(=O)N[C@@H](CCCCN)C(=O)N[C@H](C(=O)N[C@H](C(=O)N[C@@H](CC(=O)O)C(=O)N[C@@H](Cc1c[nH]cn1)C(=O)N1CCC[C@H]1C(=O)O)C(C)C)C(C)C)C(C)C [Peptide 141.6] (H-SFSGFGSPLDRLSAGSVDHKGKQRKVVDHP-OH) | 3160 nM | 16600 nM | – | – | –
KRSFSGFGSPLDRLSAGSVDHKGKQRKVVDHPKRRFGIPMDRI [Peptide 141.4] | 39.8 nM | 10200 nM | – | – | –
SFSGFGSPLDRLSAGSVDHKGKQRKVVDHPKRRFGIPMDRI-NH2 [Peptide 141.7] | 575 nM | 26900 nM | – | – | –

The remaining lines, values ahead:

EC50 [1] | EC50 [2] | b-arrestin recruitment assays (PathHunter) Emax (fold change) [1] | b-arrestin recruitment assays (Tango) Emax (fold change) [2] | EC50 [3] | Compound
2290 nM | 3020 nM | – | – | 525 nM | CSCC[C@H](NC(=O)[C@H](CCCCN)NC(=O)[C@@H](NC(=O)[C@H](CC(C)C)NC(=O)[C@@H](NC(=O)[C@@H](NC(=O)CNC(=O)CNC(=O)CNC(=O)[C@H](C)NC(=O)[C@@H]1CCCN1C(=O)[C@H](CC(C)C)NC(=O)[C@@H]1CCCN1C(=O)[C@@H](N)C(C)C)[C@@H](C)O)C(C)C)[C@@H](C)O)C(=O)N[C@@H](Cc1ccc(O)cc1)C(=O)N1CCC[C@H]1C(=O)N[C@@H](CCCNC(=N)N)C(=O)O [Peptide 167.2] (H-VPLPAGGGTVLTKMYPR-OH)
1.45 nM | 8510 nM | – | – | – | CSCC[C@H](NC(=O)[C@H](Cc1ccc(O)cc1)NC(=O)[C@@H](N)CC(=O)O)C(=O)NCC(=O)N[C@@H](Cc1c[nH]c2ccccc12)C(=O)N[C@@H](CCSC)C(=O)N[C@@H](CC(=O)O)C(=O)N[C@@H](Cc1ccccc1)C(N)=O [Peptide 194.1]
0.049 nM | 0.00191 nM | – | – | – | C[C@H](NC(=O)[C@@H](N)CCCCN)C(=O)N1CCC[C@H]1C(=O)N[C@@H](CO)C(N)=O [Peptide 194.3] (H-KAPS-NH2)
0.224 nM | 93.3 nM | – | – | – | CC[C@H](C)[C@H](NC(=O)[C@H](CCCNC(=N)N)NC(=O)[C@H](Cc1c[nH]cn1)NC(=O)[C@H](CO)NC(=O)[C@@H]1CCCN1C(=O)[C@H](CC(=O)O)NC(=O)[C@H](CC(C)C)NC(=O)[C@H](CC(N)=O)NC(=O)[C@H](CCC(N)=O)NC(=O)[C@H](CC(C)C)NC(=O)[C@H](CC(N)=O)NC(=O)[C@H](CCCCN)NC(=O)[C@@H](NC(=O)[C@@H](NC(=O)[C@H](CO)NC(=O)[C@H](CCSC)NC(=O)[C@H](CCCNC(=N)N)NC(=O)CNC(=O)[C@H](CO)NC(=O)[C@@H]1CCCN1C(=O)[C@H](C)NC(=O)[C@@H](N)CCCCN)[C@@H](C)CC)C(C)C)C(=O)N[C@@H](CO)C(=O)N[C@@H](CC(=O)O)C(=O)N[C@@H](CCCNC(=N)N)C(=O)N[C@@H](CC(=O)O)C(=O)N[C@@H](Cc1ccc(O)cc1)C(=O)N[C@@H](CCSC)C(=O)NCC(=O)O [Peptide 194.4] (H-KAPSGRMSIVKNLQNLDPSHRISDRDYMG-OH)
0.135 nM | 22.9 nM | – | – | – | CC[C@H](C)[C@H](NC(=O)[C@H](CCCNC(=N)N)NC(=O)[C@H](Cc1c[nH]cn1)NC(=O)[C@H](CO)NC(=O)[C@@H]1CCCN1C(=O)[C@H](CC(=O)O)NC(=O)[C@H](CC(C)C)NC(=O)[C@H](CC(N)=O)NC(=O)[C@H](CCC(N)=O)NC(=O)[C@H](CC(C)C)NC(=O)[C@H](CC(N)=O)NC(=O)[C@H](CCCCN)NC(=O)[C@@H](NC(=O)[C@@H](NC(=O)[C@H](CO)NC(=O)[C@H](CCSC)NC(=O)[C@H](CCCNC(=N)N)NC(=O)CNC(=O)[C@H](CO)NC(=O)[C@@H]1CCCN1C(=O)[C@H](C)NC(=O)[C@@H](N)CCCCN)[C@@H](C)CC)C(C)C)C(=O)N[C@@H](CO)C(=O)N[C@@H](CC(=O)O)C(=O)N[C@@H](CCCNC(=N)N)C(=O)O [Peptide 194.5] (H-KAPSGRMSIVKNLQNLDPSHRISDR-OH)
28200 nM | 75.9 nM | 4.0 fold change | 2.0 fold change | – | KAPSGRMSIVKNLQNLDPSHRISDRDYMGWMDFGRRSAEEYEYPS [Peptide 194.6]

Reference: paper PMC6838683, “Discovery of Human Signaling Systems: Pairing Peptides to G Protein-Coupled Receptors” (Cell, 2019)
